Experimental data: patent US20160153052A1, “MARKER TO PREDICT AND MONITOR RESPONSE TO AURORA KINASE B INHIBITOR THERAPY” (AbbVie Inc., priority 2014, published 2016)

Experiments:
OCI-AML2 cells = assay: Drug sensitivity of OCI-AML2 cells after p16 shRNA knockdown; format: cell-based; details: p16 shRNA versus control shRNA, mimics CDKN2A deletion (FIG. 7)
Procedure: OCI AML2 cells were infected with control or three p16 shRNA from Sigma (MO). Infected cells were selected with 1 μM puromycin. After selection, cells were used in drug treatment experiments. All cells were maintained at 37° C. in 5% CO2.
One gene product of the CDKN2A locus is p16. Therefore shRNA was used to decrease p16 expression to mimic a situation of CDKN2A deletion. […] Given ABT-348 is a dual inhibitor of VEGF and Aurora kinase B inhibitors, ABT-869, which inhibits VEGF but not Aurora kinase B inhibitors was included to confirm the effect was specific to Aurora kinase B inhibitors inhibition.

[1] = tested on: cycling cells in blood of patients; assay: Flow cytometry of patient blood, pharmacodynamic activity (≧4N cells); format: in vivo, human; details: patients treated with ABT-348; associated with percentage of cycling cells at baseline (FIG. 3)
Procedure: Blood of patients was added to lyse fix buffer (BD Biosciences). After lysis of red blood cells, the sample was washed, and permeabilized using Phosflow Perm/wash buffer (BD Biosciences). The sample was incubated for 15 minutes with DAPI (75 ng/mL) before analyzing on a flow cytometer.

hematologic malignancies = assay: Phase 1 clinical trial of ABT-348 in subjects with hematologic malignancies, CDKN2A status of objective responders; format: in vivo, human; details: three patients assessed had deletion of CDKN2A (FIG. 2)
Description: Three patients assessed had deletion of CDKN2A.

[2] = tested on: panel of cell lines with and without CDKN2A deletion; assay: Sensitivity to Aurora kinase inhibitors in a panel of cell lines with and without CDKN2A deletion; format: cell-based; details: cell line panel (FIG. 4 bottom left, FIG. 6)
Procedure: AML cell lines were obtained from the American Type Culture Collection (ATCC; Manassas, Va.) and propagated according to ATCC recommendations.
Based on observation, it was hypothesized that patient samples with a high proportion of cells in G2/M (ie. cycling) would be sensitive to ABT-348. Therefore, a database search was performed to identify genotypes likely to overexpress Aurora kinase B given its expression is increased in M phase of cell cycle (top left). […] Data from Cancer Cell Line Encyclopedia (CCLE) supported this hypothesis (top right). Sensitivity to Aurora kinase inhibitors including ABT-348 was assessed in a panel of cell lines with and without this deletion (bottom left). […] CDKN2A status was then assessed by in situ hybridization in patient samples from ABT-348 trials. An example from one patient is shown (bottom right).

Description for solid tumors: The Y axis list best % tumor change from baseline and the X axis are % tumor cells assessed with a deletion in CDKN2A. The hashed line indicates a putative cutoff separating patients with deletion from those without. […] Threshold to define deletion is <1.2 copies.

Structure (SMILES)	sensitivity of OCI-AML2 cells after p16 knockdown (silencing p16 sensitizes) (OCI-AML2 cells)	pharmacodynamics activity [1]	objective response in patients with deletion of CDKN2A (hematologic malignancies)	sensitivity of cell lines with CDKN2A deletion versus without [2]	discontinuation due to toxicity (solid tumors; human, in vivo)	tumor response in patients without a CDKN2A deletion (solid tumors; solid tumors, patients without deletion (FIG. 1))	clinical response in patients with a deletion of CDKN2A (solid tumors; solid tumors, three patients showed a deletion of CDKN2A, best % tumor change from baseline (FIG. 1))
Nc1ncc(-c2cnn(CCO)c2)c2scc(-c3ccc(NC(=O)Nc4cccc(F)c4)cc3)c12 [ABT-348, 1-(4-(4-amino-7-(1-(2-hydroxyethyl)-1H-pyrazol-4-yl)thieno[3,2-c]pyridin-3-yl)phenyl)-3-(3-fluorophenyl)urea]	more sensitive	increase in the number of ≧4N cells	One patient obtained a complete response, and the others had a partial response	more sensitive	the third discontinued due to toxicity	No patient without a deletion demonstrated a tumor response	Two of these patients had a clinical response
Cc1ccc(F)c(NC(=O)Nc2ccc(-c3cccc4[nH]nc(N)c34)cc2)c1 [ABT-869]	not						
CCN(CCCOc1ccc2c(Nc3cc(CC(=O)Nc4cccc(F)c4)n[nH]3)ncnc2c1)CCOP(=O)(O)O [AZD-1152, 2-[[3-({4-[(5-{2-[(3-Fluorophenyl)amino]-2-oxoethyl}-1H-pyrazol-3-yl)amino]-quinazolin-7-yl}oxy)propylliethyl)amino]ethyl dihydrogen phosphate]	more sensitive						
